The text below walks through data of patent US11414442B2, “ARF6 inhibitors and related methods” (Navigen, Inc., priority 2017, dated 2022).

Each structure is given as a SMILES string. Like-named read-outs stand apart in the source and are kept apart here. A value given as a limit tells only on which side of the number the result lay.

Data set [1] is described as follows: Solubility in water and PBS pH 7.4 (Tables 1 and 2). Format: physicochemical. Conditions: Table 1.
Another data set addresses ARF6 (Homo sapiens, UniProt P62330). In words: ARF6 inhibition, biochemical fluorometric nucleotide exchange assay. Conditions: Table 1; read-out: ARF6 IC50. From the text: These ARF6 inhibitors were discovered using a high-throughput biochemical, fluorometric nucleotide exchange assay to screen 100,000 compounds from a commercially available compound library. Medicinal chemistry optimization efforts have also been conducted. In some embodiments, the clinical potential of the discovered small molecule ARF6 inhibitors can be limited by poor solubility. Accordingly, the synthesis and development of water soluble prodrugs of ARF6 inhibitors can be advantageous. […]

Where [2] appears, read: water, read-out: Solubility Water.
Setting [3] is: aqueous buffer, PBS pH 7.4, read-out: Solubility PBS pH 7.4.

ARF6, sequence (P62330 whole entry, species assumed): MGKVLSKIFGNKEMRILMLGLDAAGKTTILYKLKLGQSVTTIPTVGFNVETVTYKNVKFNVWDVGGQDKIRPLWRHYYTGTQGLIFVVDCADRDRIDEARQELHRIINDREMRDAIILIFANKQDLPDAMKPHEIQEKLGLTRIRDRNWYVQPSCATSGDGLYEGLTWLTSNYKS

Broadly, the solubility is the dissolved amount per volume that the medium holds. What is called IC50 is the concentration at which inhibition is half-maximal. For `O=c1cc(-c2ccccc2O)n2nc(C3CC3)c(-c3ccc(Cl)c(Cl)c3)c2[nH]1` [NAV-I], the results for the solubility in data set [1] (setting [2]) and in data set [1] (setting [3]) were 29 µM and 1.8 µM, respectively. The IC50 at ARF6 was 21 µM.

For `O=c1cc(-c2ccc(F)cc2OP(=O)(O)O)n2nc(Cc3ccccc3)c(-c3ccc(Cl)cc3)c2[nH]1` [NAV-AAP], the IC50 on ARF6 was 9.2 µM.

For `O=c1cc(-c2ccc(F)cc2O)n2nc(C3CC3)c(-c3ccc(Cl)c(Cl)c3)c2[nH]1` [NAV-AF], the solubility is 1.1 µM in data set [1] (setting [2]) and less than 1 µM in data set [1] (setting [3]). Besides, the IC50 at ARF6 was 1.9 µM.

`N#Cc1ccc(-c2cc(=O)[nH]c3c(-c4ccc(Cl)c(Cl)c4)c(C(F)(F)F)nn23)c(OC(=O)[C@@H](N)CCCCN)c1` [NAV-AA]: the solubility in data set [1] (setting [2]) was greater than 500 µM; in data set [1] (setting [3]), 19 µM. The IC50 at ARF6 stood at 1.9 µM.

With `O=c1cc(-c2ccccc2O)n2nc(C(F)(F)F)c(-c3ccc(Cl)c(Cl)c3)c2[nH]1` [NAV-O], the solubility in data set [1] (setting [2]) was less than 1 µM; in data set [1] (setting [3]) it was 38 µM. For the same molecule, the IC50 at ARF6 is 2.8 µM.

With `O=c1cc(-c2ccc(Cl)cc2O)n2nc(Cc3ccccc3)c(-c3ccc(Cl)cc3)c2[nH]1` [NAV-D], the solubility in data set [1] (setting [2]) and in data set [1] (setting [3]) was less than 1 µM each time. Besides, on ARF6, the IC50 was determined as 11 µM.

Take `O=c1cc(-c2ccc(C(F)(F)F)cc2O)n2nc(C3CC3)c(-c3ccc(Cl)c(Cl)c3)c2[nH]1` [NAV-V]: the solubility in data set [1] (setting [2]) was determined as 30 µM; in data set [1] (setting [3]) it was 6 µM. Also, the IC50 at ARF6 was 3.2 µM.

As to `O=c1cc(-c2ccc(C(F)(F)F)cc2O)n2nc(Cc3ccccc3)c(-c3ccc(Cl)cc3)c2[nH]1` [NAV-U], the figures for the solubility in data set [1] (setting [2]) and in data set [1] (setting [3]) were 20 µM and 14 µM, respectively. In addition, the half-inhibitory concentration (IC50) on ARF6 was found to be 6.7 µM.

For the molecule `O=c1cc(-c2ccc(F)cc2O)n2nc(C(F)(F)F)c(-c3ccc(Cl)c(Cl)c3)c2[nH]1` [NAV-AW], the figures for the solubility in data set [1] (setting [2]) and in data set [1] (setting [3]) were less than 1 µM and 30 µM, respectively. Moreover, on ARF6, the concentration for half-maximal inhibition (IC50) was found to be 1.6 µM.

For `NCCCC[C@H](N)C(=O)Oc1cc(Cl)ccc1-c1cc(=O)[nH]c2c(-c3ccc(Cl)cc3)c(C(F)(F)F)nn12` [NAV-Z], the solubility in data set [1] (setting [2]) was 450 µM; in data set [1] (setting [3]), 22 µM. The IC50 on ARF6 was found to be 4.25 µM.

As for `NCCCC[C@H](N)C(=O)Oc1ccccc1-c1cc(=O)[nH]c2c(-c3ccc(Cl)cc3)c(Cc3ccccc3)nn12` [NAV-Y], the solubility in data set [1] (setting [2]) came out at 438 µM; in data set [1] (setting [3]), 144 µM. Besides, the IC50 at ARF6 came out at 30 µM.

For the molecule `O=c1cc(-c2ccc(Cl)cc2O)n2nc(C(F)(F)F)c(-c3ccc(Cl)cc3)c2[nH]1` [NAV-K], the solubility in data set [1] (setting [2]) was less than 1 µM; in data set [1] (setting [3]), 43 µM. For the same molecule, on ARF6, the IC50 stood at 4.2 µM.

`O=c1cc(-c2ccc(Cl)cc2O)n2nc(CN3CCOCC3)c(-c3ccc(Cl)cc3)c2[nH]1` [NAV-H]: the solubility in data set [1] (setting [2]) came to 7 µM; in data set [1] (setting [3]) it was 13 µM. The half-inhibitory concentration (IC50) at ARF6 was found to be 30 µM.

On to `N#Cc1ccc(-c2cc(=O)[nH]c3c(-c4ccc(Cl)cc4)c(Cc4ccccc4)nn23)c(O)c1` [NAV-R], for which the solubility in data set [1] (setting [2]) is less than 1 µM; in data set [1] (setting [3]), 1.7 µM. Also, the IC50 on ARF6 turned out to be 1.9 µM.

Turning to `O=c1cc(-c2ccc(C(F)(F)F)cc2O)n2nc(C(F)(F)F)c(-c3ccc(Cl)c(Cl)c3)c2[nH]1` [NAV-T], the solubility in data set [1] (setting [2]) amounted to 13 µM; in data set [1] (setting [3]) it was 11 µM. For the same molecule, the IC50 at ARF6 is 2.3 µM.

In the case of `N#Cc1ccc(-c2cc(=O)[nH]c3c(-c4ccc(Cl)cc4)c(C(F)(F)F)nn23)c(O)c1` [NAV-Q], the values for the solubility in data set [1] (setting [2]) and in data set [1] (setting [3]) were less than 1 µM and 11 µM, respectively. Further, the half-inhibitory concentration (IC50) at ARF6 came to 5.1 µM.

With `Cc1ccc(-c2cc(=O)[nH]c3c(-c4ccc(Cl)cc4)c(Cc4ccccc4)nn23)c(OC(=O)[C@@H](N)CCCCN)c1` [NAV-AAF], the IC50 on ARF6 was greater than 50 µM.

Take `Cc1ccc(-c2cc(=O)[nH]c3c(-c4ccc(Cl)cc4)c(Cc4ccccc4)nn23)c(OP(=O)([O-])[O-])c1.[Na+].[Na+]` [NAV-AAR]: in data set [1] (setting [2]), the solubility is greater than 50 mg/mL.

On to `NCCCC[C@H](N)C(=O)Oc1cc(F)ccc1-c1cc(=O)[nH]c2c(-c3ccc(Cl)cc3)c(Cc3ccccc3)nn12` [NAV-AAE], for which, on ARF6, the IC50 is 3.3 µM.
